As usually defined, the viability, T/C is the ratio of treated to control. The IC50 is the concentration that gives 50% inhibition.

The structures appear in SMILES notation. Several values for one entry are separate records, joined by “and”; a condition that tells them apart may be missing. Equal entries are not always repeated. Where only a bound is given, the exact number is not on record here.

This assay relates to 323965-272-R-J2-PDC complex spheroid viability. The assay is described as follows: Anticancer human tumor 323965-272-R-J2-PDC patient-derived pancreatic carcinoma cell line growth inhibition [CLK]. The conditions noted are these: for viability, T/C: stronger effect = lower value. From the text: A high-throughput screen of multi-cell type tumor spheroids was designed to identify active combinations of […] and targeted small molecules. Complex spheroids include a stromal component modeled by human endothelial cells (HUVEC) and fibroblasts modeled by human mesenchymal stem cells (MSCs). The concentration ranges selected for each drug and investigational agent were based upon clinically achievable concentrations if the clinical Cmax of the agent was known.
Compounds. The drugs and investigational agents: cirtuvivint (SM08502; NSC835563), CC-671 (NSC850746), vemurafenib (NSC761431), tapotoclax (NSC804041), sotorasib (NSC818433), adagrasib (NSC831453), MRTX-1133 (NSC836407), BAY2416964 (NSC825713), copanlisib (NSC816437), inavolisib (NSC800729), abemaciclib (NSC768073), osimertinib (NSC779217), entinostat (NSC756642), eltanexor (KPT-8602, NSC794443), venetoclax (NSC766270), ceralasertib (NSC777638), bortezomib (NSC756655), olaparib (NSC753686), talazoparib (NSC767125), alisertib (NSC759677), peposertib (NSC802822), gemcitabine (NSC613327), 5-fluorouracil (NSC19893), SN-38 (NSC673596), oxaliplatin (NSC266046), paclitaxel (NSC125973), and doxorubicin (NSC123127), were obtained from the National Cancer Institute (NCI) Developmental Therapeutics Program Chemical Repository. The FDA-approved anticancer drug set is available from the Developmental Therapeutics Program at https://dtp.cancer.gov/organization/dscb/obtaining/available plates.htm. […] The stock solutions were prepared in dimethyl sulfoxide (DMSO, Sigma-Aldrich, St. Louis, MO, cat. D2650), except for the platinum complexes which were prepared in saline (Quality Biological, Gaithersburg, MD, cat. 114-055-101), at 800-fold the tested concentration and stored at -70 degrees C prior to their use. All drugs and investigational agents were tested over a range starting from a high concentration at or near the clinical Cmax and decreasing in half-log increments. If the clinical Cmax for an agent had not been determined, the highest concentration tested was 10 microM.
Cell Culture. All cells were maintained in an incubator at 37 degrees C and 5% CO2 with 95% humidity. The PDC lines were cultured according to standard operating procedures established by the NCI PDMR. Briefly, all PDCs were thawed and cultured in Matrigel-coated flasks prepared with a working solution of 1X Ham's F-12 nutrient mix, without supplementation (Invitrogen, Waltham, MA, cat. 11765054), 100 U/mL penicillin-streptomycin (Invitrogen, cat. 15140122), and 2.5% Matrigel (Corning Inc., Corning, NY, cat. 354248) for the first three passages. The 947758-054-R-J2-PDC line was cultured in 6B/Colon 1A media, which includes advanced DMEM/F-12 (Thermo Fisher Scientific, cat. 12634028), 10 mM HEPES (Thermo Fisher Scientific, cat. 15630080), 1X GlutaMAX supplement (Thermo Fisher Scientific, cat. 35050061), 0.1 mg/mL primocin (InvivoGen, cat. ant-pm-2), 10% defined fetal bovine serum, heat inactivated (HyClone Laboratories Inc., cat. SH30070.03HI), 1.25 mM N-Acetyl-L-cysteine (Sigma-Aldrich, cat. A9165), 10 mM nicotinamide (Sigma-Aldrich, cat. N0636), 1X B-27 supplement (Thermo Fisher Scientific, cat. 17504044), 1X N-2 supplement (Thermo Fisher Scientific, cat. 17502048), and 10 microM Y-27632 dihydrochloride (Tocris Bioscience, cat. 1254). The 876862-298-R-J1-PDC was cultured in 6E media, which includes all 6B/Colon 1A media components plus 50% L-WRN conditioned media (ATCC, cat. CRL-3276), 50 ng/mL recombinant human EGF recombinant protein (hEGF; Thermo Fisher Scientific, cat. PHG0311), 10 ng/mL recombinant human fibroblast growth factor 10 (hGFG-10; PeproTech, cat. 100-26), 1 ng/mL recombinant human fibroblast growth factor 2 (hFGF-2; PeproTech, cat. 100-18B), and 1 µM prostaglandin E2 (PGE2; Tocris, cat. 2296). The 227483-062-R1-J1-PDC line was cultured in Panc media, containing all 6E components except hFGF-2, with the addition of 500 nM SB-431542 (Selleckchem, cat. S1067) and 10 nM gastrin (Tocris, cat. 3006). […]
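Further: spheroids exposed to agents for seven days before readout.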
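Wherever viability, T/C is given: percent of DMSO vehicle control wells so 100% = untreated growth.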

As for `C#Cc1c(F)ccc2cc(O)cc(-c3ncc4c(N5CC6CCC(C5)N6)nc(OCC56CCCN5CC(F)C6)nc4c3F)c12` (stereo not drawn), the viability, T/C (compound 0.0316 µM) is 101% and 111%; the viability, T/C (compound 0.1 µM) is 91.2% and 95.5%; the viability, T/C (compound 0.316 µM) is 106% and 98.5%; the viability, T/C (compound 1 µM) was 81.5% and 86.9%; the viability, T/C (compound 3.16 µM) is 63.2% and 75.6%; the viability, T/C (compound 10 µM) was 48.4% and 55.3%. The IC50 (curve of compound) was 9340 nM and > 10000 nM.

With `C=C(F)C(=O)N1CCN(c2nc(OCC3CCCN3C)nc3c2CCN(c2cccc4cccc(Cl)c24)C3)CC1CC#N` (stereo not drawn), the viability, T/C reads like this: (compound 0.0316 µM) 64.5% and 64.8%; (compound 0.1 µM) 50.8% and 64.2%; (compound 0.316 µM) 48.9% and 63%; (compound 1 µM) 69.4% and 61.5%; (compound 3.16 µM) 66.8% and 77.9%. For the same molecule, for the setting “curve of compound”, the IC50 is 3990 nM and > 10000 nM.

In the case of `C=CC(=O)N1CCN(c2nc(=O)n(-c3c(C)ccnc3C(C)C)c3nc(-c4c(O)cccc4F)c(F)cc23)C(C)C1` (stereo not drawn), the viability, T/C by setting is: (compound 0.0316 µM) 75.1% and 73.7%; (compound 0.1 µM) 60.8% and 66.9%; (compound 0.316 µM) 55.2% and 68.3%; (compound 1 µM) 67.1% and 84.3%; (compound 3.16 µM) 76% and 71.3%; (compound 10 µM) 62.9% and 66.1%. Moreover, the IC50 (curve of compound) was greater than 10000 nM.

As for `C=CC(=O)Nc1cc(Nc2nccc(-c3cn(C)c4ccccc34)n2)c(OC)cc1N(C)CCN(C)C`, the viability, T/C runs as follows: (compound 0.000949 µM) 103% and 92.1%; (compound 0.003 µM) 80.7% and 91.7%; (compound 0.00949 µM) 97.6% and 86%; (compound 0.03 µM) 90.5% and 83.2%; (compound 0.0949 µM) 81.3% and 78.3%; (compound 0.3 µM) 87.5% and 75.6%. Also, where the note is “curve of compound”, the 50% inhibitory concentration (IC50) was greater than 300 nM.

Take `CC(C)CC(NC(=O)C(Cc1ccccc1)NC(=O)c1cnccn1)B(O)O` (stereo not drawn): the viability, T/C runs as follows: (compound 0.000949 µM) 107% and 115%; (compound 0.003 µM) 75.1% and 49.5%; (compound 0.00949 µM) 5.4% and 2.55%; (compound 0.03 µM) 0.66% and 1.05%; (compound 0.0949 µM) 0.26% and 0.62%; (compound 0.3 µM) 2% and 3.78%. In addition, the IC50 (curve of compound) was 4.54 nM and 2.98 nM.

On to `CC(CO)NC(=O)c1cc(-c2ccc(Cl)cc2)nn(-c2cnn(C)c2)c1=O` (stereo not drawn), for which the viability, T/C is 93.7% and 115% (compound 0.0316 µM); 92.6% and 98.9% (compound 0.1 µM); 94.8% and 101% (compound 0.316 µM); 91.8% and 110% (compound 1 µM); 106% and 116% (compound 3.16 µM); 91.5% and 105% (compound 10 µM). The IC50 (curve of compound) is greater than 10000 nM.

As for `CC(Nc1ccc2c(c1)OCCn1cc(N3C(=O)OCC3C(F)F)nc1-2)C(N)=O` (stereo not drawn), the viability, T/C reads like this: (compound 0.0316 µM) 94.2% and 96.6%; (compound 0.1 µM) 89.2% and 83.2%; (compound 0.316 µM) 76.2% and 66.7%; (compound 1 µM) 67.8% and 65.5%; (compound 3.16 µM) 63.1% and 68.3%; (compound 10 µM) 50.9% and 47.6%. Also, the IC50 (curve of compound) was greater than 10000 nM.

`CC1(C)CCC(CN2CCN(c3ccc(C(=O)NS(=O)(=O)c4ccc(NCC5CCOCC5)c([N+](=O)[O-])c4)c(Oc4cnc5[nH]ccc5c4)c3)CC2)=C(c2ccc(Cl)cc2)C1`: the viability, T/C was 97.7% and 104% (compound 0.0316 µM); 103% and 96.6% (compound 0.1 µM); 103% and 100% (compound 0.316 µM); 95.6% and 102% (compound 1 µM); 93.1% and 89.5% (compound 3.16 µM); 6.41% and 8.48% (compound 10 µM). Also, under “curve of compound”, the half-maximal inhibitory concentration (IC50) was 5610 nM and 5540 nM.

`CCCS(=O)(=O)Nc1ccc(F)c(C(=O)c2c[nH]c3ncc(-c4ccc(Cl)cc4)cc23)c1F`: the viability, T/C (compound 0.0316 µM) is 105% and 112%; the viability, T/C (compound 0.1 µM) is 105% and 113%; the viability, T/C (compound 0.316 µM) was 112% and 123%; the viability, T/C (compound 1 µM) is 110% and 105%; the viability, T/C (compound 3.16 µM) was 116% and 99%; the viability, T/C (compound 10 µM) was 84.8% and 79.7%. In addition, the IC50 (curve of compound) is greater than 10000 nM.

For the molecule `CCN1CCN(Cc2ccc(Nc3ncc(F)c(-c4cc(F)c5nc(C)n(C(C)C)c5c4)n3)nc2)CC1`, the viability, T/C by setting is: (compound 0.00316 µM) 91.3% and 105%; (compound 0.01 µM) 95.6% and 95%; (compound 0.0316 µM) 81.2% and 68.3%; (compound 0.1 µM) 67.5% and 69.9%; (compound 0.316 µM) 73.3% and 68.3%; (compound 1 µM) 72.3% and 68.7%. The IC50 (curve of compound) was greater than 1000 nM.

Turning to `CCc1c2c(nc3ccc(O)cc13)-c1cc3c(c(=O)n1C2)COC(=O)[C@]3(O)CC`, the viability, T/C is, setting by setting: (compound 0.00316 µM) 90.2% and 92.5%; (compound 0.01 µM) 49.5% and 42.7%; (compound 0.0316 µM) 34.2% and 29.5%; (compound 0.1 µM) 35.9% and 30.6%; (compound 0.316 µM) 26.4% and 30.6%; (compound 1 µM) 26.2% and 20.2%. Further, the 50% inhibitory concentration (IC50) (curve of compound) was 10.2 nM and 8.51 nM.

Consider `CN1CCN(c2cc(C(=O)Nc3cc4cc(-c5cnn(C)c5)ccc4cn3)ccn2)CC1`, for which the viability, T/C by setting is: (compound 0.0316 µM) 98.9% [middle of 12 runs]; (compound 0.1 µM) 70% [middle of 12 runs]; (compound 0.316 µM) 28.1% [middle of 12 runs]; (compound 1 µM) 4.53% [middle of 12 runs]; (compound 3.16 µM) 4.75% [middle of 12 runs]; (compound 10 µM) 4.22% [middle of 11 runs]. In addition, the IC50 (compound alone, run of 08/14/2023) was 174 nM [middle of 10 runs].

As for `COC1C=CCC(C)C(C)S(=O)(=O)NC(=O)c2ccc3c(c2)N(CC2CCC21)CC1(CCCc2cc(Cl)ccc21)CO3` (stereo not drawn), the viability, T/C is, setting by setting: (compound 0.0316 µM) 111% and 91.1%; (compound 0.1 µM) 108% and 91.9%; (compound 0.316 µM) 77.9% and 80.8%; (compound 1 µM) 61.1% and 61.5%; (compound 3.16 µM) 37.5% and 61%; (compound 10 µM) 10.5% and 25.6%. The IC50 (curve of compound) is 1640 nM and 3650 nM.

Turning to `COc1c(OCCCN2CCOCC2)ccc2c3n(c(=NC(=O)c4cnc(N)nc4)nc12)CCN3`, the viability, T/C reads like this: (compound 0.00316 µM) 98.5% and 103%; (compound 0.01 µM) 80.8% and 72.1%; (compound 0.0316 µM) 62% and 54.2%; (compound 0.1 µM) 46.6% and 45.2%; (compound 0.316 µM) 38.4% and 31%; (compound 1 µM) 27.7% and 21.9%. Moreover, the IC50 (curve of compound) was 83.6 nM and 48.1 nM.

On to `Cn1ncnc1[C@H]1c2n[nH]c(=O)c3cc(F)cc(c23)N[C@@H]1c1ccc(F)cc1`, for which the viability, T/C (compound 0.000316 µM) was 108% and 106%; the viability, T/C (compound 0.001 µM) was 108% and 97.8%; the viability, T/C (compound 0.00316 µM) is 101% and 105%; the viability, T/C (compound 0.01 µM) is 104% and 99.3%; the viability, T/C (compound 0.0316 µM) is 114% and 94.7%; the viability, T/C (compound 0.1 µM) is 83.6% and 74.6%. Also, under “curve of compound”, the IC50 is greater than 100 nM.

In the case of `NC(=O)C(=Cn1cnc(-c2cc(C(F)(F)F)cc(C(F)(F)F)c2)n1)c1cncnc1`, the viability, T/C runs as follows: (compound 0.00949 µM) 97.4% and 105%; (compound 0.03 µM) 109% and 91.9%; (compound 0.0949 µM) 74.2% and 75.9%; (compound 0.3 µM) 64.3% and 66.8%; (compound 0.949 µM) 69.2% and 61.7%; (compound 3 µM) 38.3% and 28.5%. Further, the 50% inhibitory concentration (IC50) (curve of compound) was 1690 nM and 1060 nM.

Regarding `Nc1ccccc1NC(=O)c1ccc(CNC(=O)OCc2cccnc2)cc1`, the viability, T/C reads like this: (compound 0.0316 µM) 115% and 110%; (compound 0.1 µM) 103% and 104%; (compound 0.316 µM) 101% and 95.5%; (compound 1 µM) 89.1% and 86.3%; (compound 3.16 µM) 72.6% and 61.8%; (compound 10 µM) 47.9% and 43.9%. For the same molecule, under “curve of compound”, the IC50 is 9390 nM and 6890 nM.
